In brackets after ≈: the same amount, converted by molar mass.
Assays:
Type in all cases: cell-based
[1] = test system: Streptococcus pneumoniae 1095; conditions: Streptococcus pneumoniae 1095; microtiter broth dilution
Summary of the method: (§1)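 DMSO stocks, 40 mg/ml; trays scored for MIC following M100-S14 (NCCLS).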

[2] = test system: Streptococcus pneumoniae 1175; conditions: Streptococcus pneumoniae 1175; microtiter broth dilution
Summary of the method: as §1

[3] = test system: Streptococcus pneumoniae 1016; experiment: MIC, microtiter broth dilution (NCCLS M100-S14), S. pneumoniae 1016 (susceptible); conditions: Streptococcus pneumoniae 1016
Summary of the method: as §1

[4] = test system: Streptococcus pyogenes 1079; experiment: MIC, microtiter broth dilution (NCCLS M100-S14), S. pyogenes 1079 (ermB); conditions: Streptococcus pyogenes 1079
Summary of the method: as §1

[5] = test system: Haemophilus influenzae 1218; experiment: MIC, microtiter broth dilution (NCCLS M100-S14), H. influenzae 1218 (susceptible); conditions: Haemophilus influenzae 1218
Summary of the method: as §1

Row | SMILES | MIC S. pneumo. 1095 [1] [µg/mL] | MIC S. pneumo. 1175 [2] [µg/mL] | MIC S. pneumo. 1016 [3] [µg/mL] | MIC S. pyogenes 1079 [4] [µg/mL] | MIC H. influenzae 1218 [5] [µg/mL]
1 | CCC1OC(=O)C(C)(F)C(=O)C(C)C(OC2OC(C)CC(N(C)C)C2O)C(C)(OC)CC(C)C(=O)C(C)C2N(C3CN(Cc4ccnc5ncccc45)C3)C(=O)OC12C (stereo not drawn) [Example 1.33, 3-descladinosyl-11,12-dideoxy-2-fluoro-6-O-methyl-3-oxo-12,11-(oxycarbonyl-(1-((1,8-naphthyridin-4-yl)-methyl)-azetidin-3-yl)-imino)-erythromycin A] | <0.06 | <0.06 | <0.06 | 0.25 (≈ 0.302 µM) | 0.25 (≈ 0.302 µM)
2 | CCC1OC(=O)C(C)C(=O)C(C)C(OC2OC(C)CC(N(C)C)C2O)C(C)(OC)CC(C)C(=O)C(C)C2N(C3CN(Cc4ccc5nc(C)sc5n4)C3)C(=O)OC12C (stereo not drawn) [Example 1.34, (2-methyl-thiazolo[5,4-b]pyridin-5-yl)methyl] | <0.06 | 0.12 (≈ 0.145 µM) | <0.06 | 32 (≈ 38.6 µM) | 0.5 (≈ 0.602 µM)
3 | CCC1OC(=O)C(C)C(=O)C(C)C(OC2OC(C)CC(N(C)C)C2O)C(C)(OC)CC(C)C(=O)C(C)C2N(C3CN(Cc4ccnc5ncsc45)C3)C(=O)OC12C (stereo not drawn) [Example 1.35, 3-descladinosyl-11,12-dideoxy-6-O-methyl-3-oxo-12,11-(oxycarbonyl-(1-((thiazolo[4,5-b]pyridin-7-yl)-methyl)-azetidin-3-yl)-imino)erythromycin A] | <0.06 | 0.12 (≈ 0.147 µM) | <0.06 | 4 (≈ 4.9 µM) | 1 (≈ 1.23 µM)
4 | CCC1OC(=O)C(C)C(=O)C(C)C(OC2OC(C)CC(N(C)C)C2O)C(C)(OC)CC(C)C(=O)C(C)C2N(C3CN(Cc4cc(=O)[nH]c5ccc(Cl)cc45)C3)C(=O)OC12C (stereo not drawn) [Example 1.36, (6-chloro-1H-quinolin-2-on-4-yl)methyl] | <0.06 | 0.12 (≈ 0.14 µM) | <0.06 | 8 (≈ 9.31 µM) | 0.5 (≈ 0.582 µM)
5 | CCC1OC(=O)C(C)C(=O)C(C)C(OC2OC(C)CC(N(C)C)C2O)C(C)(OC)CC(C)C(=O)C(C)C2N(C3CN(C(C)c4ccnc5cccnc45)C3)C(=O)OC12C (stereo not drawn) [Example 1.37, 3-descladinosyl-11,12-dideoxy-6-O-methyl-3-oxo-12,11-(oxycarbonyl-(1-(1R-(1,5-naphthyridin-4-yl)-ethyl)-azetidin-3-yl)-imino)erythromycin A] | <0.06 | 0.25 (≈ 0.303 µM) | <0.06 | 4 (≈ 4.85 µM) | 1 (≈ 1.21 µM)
6 | CCC1OC(=O)C(C)C(=O)C(C)C(OC2OC(C)CC(N(C)C)C2O)C(C)(OC)CC(C)C(=O)C(C)C2N(C3CN(C(C)c4ccnc5cccnc45)C3)C(=O)OC12C (stereo not drawn) [Example 1.38, 3-descladinosyl-11,12-dideoxy-6-O-methyl-3-oxo-12,11-(oxycarbonyl-(1-(1S-(1,5-naphthyridin-4-yl)-ethyl)-azetidin-3-yl)-imino)erythromycin A] | <0.06 | 0.25 (≈ 0.303 µM) | <0.06 | 4 (≈ 4.85 µM) | 1 (≈ 1.21 µM)
7 | CCC1OC(=O)C(C)C(=O)C(C)C(OC2OC(C)CC(N(C)C)C2O)C(C)(OC)CC(C)C(=O)C(C)C2N(C3CN(Cc4cc(OC)nc5ccccc45)C3)C(=O)OC12C (stereo not drawn) [Example 1.39, (2-methoxyquinolin-4-yl)methyl] | <0.06 | 0.25 (≈ 0.298 µM) | <0.06 | 16 (≈ 19.1 µM) | 1 (≈ 1.19 µM)
8 | CCC1OC(=O)C(C)C(=O)C(C)C(OC2OC(C)CC(N(C)C)C2O)C(C)(OC)CC(C)C(=O)C(C)C2N(C3CN(Cc4cnn(-c5cccc(F)c5)c4)C3)C(=O)OC12C (stereo not drawn) [Example 1.41, (1-[3-fluorophenyl]-pyrazol-4-yl)methyl] | <0.06 | <0.06 | <0.06 | >64.00 | 0.12 (≈ 0.143 µM)
9 | CCC1OC(=O)C(C)C(=O)C(C)C(OC2OC(C)CC(N(C)C)C2O)C(C)(OC)CC(C)C(=O)C(C)C2N(C3CN(Cc4c[nH]nc4-c4ccc(F)cc4)C3)C(=O)OC12C (stereo not drawn) [Example 1.42, (1H-3-[4-fluorophenyl]-pyrazol-4-yl)methyl] | <0.06 | 0.25 (≈ 0.297 µM) | <0.06 | >64.00 | 2 (≈ 2.38 µM)
10 | CCC1OC(=O)C(C)C(=O)C(C)C(OC2OC(C)CC(N(C)C)C2O)C(C)(OC)CC(C)C(=O)C(C)C2N(C3CN(Cc4cccc(-c5ccccn5)c4)C3)C(=O)OC12C (stereo not drawn) [Example 1.43, 3-(pyridin-2-yl)-benzyl] | <0.06 | <0.06 | <0.06 | 16 (≈ 19.2 µM) | 2 (≈ 2.4 µM)
11 | CCc1noc(-c2cccc(CN3CC(N4C(=O)OC5(C)C(CC)OC(=O)C(C)C(=O)C(C)C(OC6OC(C)CC(N(C)C)C6O)C(C)(OC)CC(C)C(=O)C(C)C45)C3)c2)n1 (stereo not drawn) [Example 1.44, 3-(3-ethyl-[1,2,4]oxadiazol-5-yl)benzyl] | <0.06 | 0.5 (≈ 0.585 µM) | <0.06 | >64.00 | 16 (≈ 18.7 µM)
12 | CCC1OC(=O)C(C)C(=O)C(C)C(OC2OC(C)CC(N(C)C)C2O)C(C)(OC)CC(C)C(=O)C(C)C2N(C3CN(Cc4ccc(-n5cccn5)nc4)C3)C(=O)OC12C (stereo not drawn) [Example 1.45] | <0.06 | 0.5 (≈ 0.606 µM) | <0.06 | 16 (≈ 19.4 µM) | 4 (≈ 4.85 µM)
13 | CCC1OC(=O)C(C)C(=O)C(C)C(OC2OC(C)CC(N(C)C)C2O)C(C)(OC)CC(C)C(=O)C(C)C2N(C3CN(Cc4ccnc(-c5nc(C)no5)c4)C3)C(=O)OC12C (stereo not drawn) [Example 1.46, (2-[3-methyl-(1,2,4)oxadiazol-5-yl]pyridin-4-yl)methyl] | <0.06 | 0.25 (≈ 0.297 µM) | <0.06 | >64.00 | 8 (≈ 9.51 µM)
14 | CCC1OC(=O)C(C)C(=O)C(C)C(OC2OC(C)CC(N(C)C)C2O)C(C)(OC)CC(C)C(=O)C(C)C2N(C3CN(Cc4cccc(-c5cnco5)c4)C3)C(=O)OC12C (stereo not drawn) [Example 1.47, 3-(oxazol-5-yl)benzyl] | <0.06 | <0.06 | <0.06 | 64 (≈ 77.6 µM) | 0.25 (≈ 0.303 µM)
15 | CC[C@H]1OC(=O)[C@H](C)C(=O)[C@H](C)[C@@H](O[C@@H]2O[C@H](C)C[C@H](N(C)C)[C@H]2O)[C@](C)(OC)C[C@@H](C)C(=O)[C@H](C)[C@H]2N(C3CN(C(C)c4ccnc5ccccc45)C3)C(=O)O[C@]12C (stereo partly drawn) [Example 1.62, 3-descladinosyl-11,12-dideoxy-6-O-methyl-3-oxo-12,11-(oxycarbonyl-(1-(1-(quinolin-4-yl)-ethyl)-azetidin-3-yl)-imino)-erythromycin A] | <0.06 | <0.06 | <0.06 | 2 (≈ 2.43 µM) | 0.5 (≈ 0.608 µM)
16 | CC[C@H]1OC(=O)[C@H](C)C(=O)[C@H](C)[C@@H](O[C@@H]2O[C@H](C)C[C@H](N(C)C)[C@H]2O)[C@](C)(OC)C[C@@H](C)C(=O)[C@H](C)[C@H]2N(C3CN(C(C)c4ccnc5ccccc45)C3)C(=O)O[C@]12C (stereo partly drawn) [Example 1.63, 3-descladinosyl-11,12-dideoxy-6-O-methyl-3-oxo-12,11-(oxycarbonyl-(1-(1-(quinolin-4-yl)-ethyl)-azetidin-3-yl)-imino)-erythromycin A] | <0.06 | 0.12 (≈ 0.146 µM) | <0.06 | 2 (≈ 2.43 µM) | 1 (≈ 1.22 µM)
17 | CCCC(c1ccnc2ccccc12)N1CC(N2C(=O)OC3(C)C(CC)OC(=O)C(C)C(=O)C(C)C(OC4OC(C)CC(N(C)C)C4O)C(C)(OC)CC(C)C(=O)C(C)C23)C1 (stereo not drawn) [Example 1.64, 3-descladinosyl-11,12-dideoxy-6-O-methyl-3-oxo-12,11-(oxycarbonyl-(1-(1-(quinolin4-yl)-butyl)-azetidin-3-yl)-imino)-erythromycin A] | <0.06 | <0.06 | <0.06 | 1 (≈ 1.17 µM) | 1 (≈ 1.17 µM)
18 | CCCC(c1ccnc2ccccc12)N1CC(N2C(=O)OC3(C)C(CC)OC(=O)C(C)C(=O)C(C)C(OC4OC(C)CC(N(C)C)C4O)C(C)(OC)CC(C)C(=O)C(C)C23)C1 (stereo not drawn) [Example 1.65, 3-descladinosyl-11,12-dideoxy-6-O-methyl-3-oxo-12,11-(oxycarbonyl-(1-(1-(quinolin4-yl)-butyl)-azetidin-3-yl)-imino)-erythromycin A] | <0.06 | <0.06 | <0.06 | 8 (≈ 9.4 µM) | 1 (≈ 1.17 µM)

— patent US7462600B2, “Macrolides” (Pfizer Inc, priority 2004, dated 2008)
